How the values were obtained:
Format in all cases: functional
[1] = system: MDA-MB-468; assay: Growth inhibition of human MDA-MB-468 cells after 48 hrs by sulforhodamine B assay; settings: MDA-MB-468, 48 h
[2] = system: T47D; assay: Growth inhibition of human T47D cells after 48 hrs by sulforhodamine B assay
[3] = Growth inhibition of human Hs 578T cells after 48 hrs by sulforhodamine B assay
[4] = system: BT-549; assay: Growth inhibition of human BT549 cells after 48 hrs by sulforhodamine B assay; settings: BT-549, 48 h
[5] = system: MCF7; assay: Growth inhibition of human MCF7 cells after 48 hrs by sulforhodamine B assay; settings: MCF7, 48 h
[6] = system: MDA-MB-231; assay: Growth inhibition of human MDA-MB-231 cells after 48 hrs by sulforhodamine B assay; settings: MDA-MB-231, 48 h
[7] = system: DU-145; assay: Growth inhibition of human DU145 cells after 48 hrs by sulforhodamine B assay; settings: DU-145, 48 h
[8] = system: PC-3; assay: Growth inhibition of human PC3 cells after 48 hrs by sulforhodamine B assay; settings: PC-3, 48 h
[9] = Growth inhibition of human UO31 cells after 48 hrs by sulforhodamine B assay; settings: UO-31, 48 h
[10] = system: SN12C; assay: Growth inhibition of human SN12C cells after 48 hrs by sulforhodamine B assay
[11] = system: TK-10; assay: Growth inhibition of human TK10 cells after 48 hrs by sulforhodamine B assay; settings: TK-10, 48 h
[12] = system: CAKI-1; assay: Growth inhibition of human CAKI-1 cells after 48 hrs by sulforhodamine B assay; settings: CAKI-1, 48 h
[13] = Growth inhibition of human RXF393 cells after 48 hrs by sulforhodamine B assay; settings: RXF 393, 48 h
[14] = system: A498; assay: Growth inhibition of human A498 cells after 48 hrs by sulforhodamine B assay; settings: A498, 48 h
[15] = system: ACHN; assay: Growth inhibition of human ACHN cells after 48 hrs by sulforhodamine B assay
[16] = system: 786-0; assay: Growth inhibition of human 786-0 cells after 48 hrs by sulforhodamine B assay; settings: 786-0, 48 h
[17] = system: SK-OV-3; assay: Growth inhibition of human SKOV3 cells after 48 hrs by sulforhodamine B assay; settings: SK-OV-3, 48 h
[18] = system: OVCAR-8; assay: Growth inhibition of human OVCAR8 cells after 48 hrs by sulforhodamine B assay; settings: OVCAR-8, 48 h
[19] = Growth inhibition of human NCI-ADR-RES cells after 48 hrs by sulforhodamine B assay
[20] = Growth inhibition of human OVCAR4 cells after 48 hrs by sulforhodamine B assay; settings: OVCAR-4, 48 h
[21] = Growth inhibition of human OVCAR5 cells after 48 hrs by sulforhodamine B assay; settings: OVCAR-5, 48 h
[22] = system: IGROV-1; assay: Growth inhibition of human IGROV1 cells after 48 hrs by sulforhodamine B assay; settings: IGROV-1, 48 h
[23] = system: OVCAR-3; assay: Growth inhibition of human OVCAR3 cells after 48 hrs by sulforhodamine B assay; settings: OVCAR-3, 48 h
[24] = Growth inhibition of human UACC257 cells after 48 hrs by sulforhodamine B assay; settings: UACC-257, 48 h
[25] = system: UACC-62; assay: Growth inhibition of human UACC62 cells after 48 hrs by sulforhodamine B assay; settings: UACC-62, 48 h
[26] = system: SK-MEL-28; assay: Growth inhibition of human SK-MEL-28 cells after 48 hrs by sulforhodamine B assay; settings: SK-MEL-28, 48 h
[27] = system: SK-MEL-5; assay: Growth inhibition of human SK-MEL-5 cells after 48 hrs by sulforhodamine B assay; settings: SK-MEL-5, 48 h
[28] = system: MDA-MB-435; assay: Growth inhibition of human MDA-MB-435 cells after 48 hrs by sulforhodamine B assay; settings: MDA-MB-435, 48 h
[29] = system: SK-MEL-2; assay: Growth inhibition of human SK-MEL-2 cells after 48 hrs by sulforhodamine B assay; settings: SK-MEL-2, 48 h
[30] = system: M14; assay: Growth inhibition of human M14 cells after 48 hrs by sulforhodamine B assay; settings: M14, 48 h
[31] = system: Malme-3M; assay: Growth inhibition of human MALME-3M cells after 48 hrs by sulforhodamine B assay
[32] = system: LOX IMVI; assay: Growth inhibition of human LOXIMVI cells after 48 hrs by sulforhodamine B assay
[33] = system: U-251; assay: Growth inhibition of human U251 cells after 48 hrs by sulforhodamine B assay; settings: U-251, 48 h
[34] = system: SNB-75; assay: Growth inhibition of human SNB75 cells after 48 hrs by sulforhodamine B assay; settings: SNB-75, 48 h
[35] = Growth inhibition of human SF539 cells after 48 hrs by sulforhodamine B assay; settings: SF-539, 48 h
[36] = system: SNB-19; assay: Growth inhibition of human SNB19 cells after 48 hrs by sulforhodamine B assay; settings: SNB-19, 48 h
[37] = system: SF-295; assay: Growth inhibition of human SF295 cells after 48 hrs by sulforhodamine B assay; settings: SF-295, 48 h
[38] = system: SF-268; assay: Growth inhibition of human SF268 cells after 48 hrs by sulforhodamine B assay; settings: SF-268, 48 h
[39] = system: SW-620; assay: Growth inhibition of human SW620 cells after 48 hrs by sulforhodamine B assay; settings: SW-620, 48 h
[40] = system: KM12; assay: Growth inhibition of human KM12 cells after 48 hrs by sulforhodamine B assay; settings: KM12, 48 h
[41] = system: HT-29; assay: Growth inhibition of human HT-29 cells after 48 hrs by sulforhodamine B assay; settings: HT-29, 48 h
[42] = system: HCT-15; assay: Growth inhibition of human HCT15 cells after 48 hrs by sulforhodamine B assay; settings: HCT-15, 48 h
[43] = system: HCT-116; assay: Growth inhibition of human HCT116 cells after 48 hrs by sulforhodamine B assay; settings: HCT-116, 48 h
[44] = Growth inhibition of human HCC2998 cells after 48 hrs by sulforhodamine B assay; settings: HCC 2998, 48 h
[45] = system: COLO 205; assay: Growth inhibition of human COLO205 cells after 48 hrs by sulforhodamine B assay; settings: COLO 205, 48 h
[46] = system: NCI-H522; assay: Growth inhibition of human NCI-H522 cells after 48 hrs by sulforhodamine B assay; settings: NCI-H522, 48 h
[47] = system: NCI-H460; assay: Growth inhibition of human NCI-H460 cells after 48 hrs by sulforhodamine B assay; settings: NCI-H460, 48 h
[48] = system: NCI-H322M; assay: Growth inhibition of human NCI-H322M cells after 48 hrs by sulforhodamine B assay
[49] = system: NCI-H23; assay: Growth inhibition of human NCI-H23 cells after 48 hrs by sulforhodamine B assay; settings: NCI-H23, 48 h
[50] = system: NCI-H226; assay: Growth inhibition of human NCI-H226 cells after 48 hrs by sulforhodamine B assay; settings: NCI-H226, 48 h
[51] = system: HOP-62; assay: Growth inhibition of human HOP62 cells after 48 hrs by sulforhodamine B assay; settings: HOP-62, 48 h
[52] = Growth inhibition of human HOP92 cells after 48 hrs by sulforhodamine B assay; settings: HOP-92, 48 h
[53] = system: A549; assay: Growth inhibition of human A549/ATCC cells after 48 hrs by sulforhodamine B assay; settings: A549, 48 h
[54] = Growth inhibition of human EKVX cells after 48 hrs by sulforhodamine B assay
[55] = system: RPMI-8226; assay: Growth inhibition of human RPMI8226 cells after 48 hrs by sulforhodamine B assay; settings: RPMI-8226, 48 h
[56] = system: SR; assay: Growth inhibition of human SR cells after 48 hrs by sulforhodamine B assay
[57] = system: MOLT-4; assay: Growth inhibition of human MOLT4 cells after 48 hrs by sulforhodamine B assay; settings: MOLT-4, 48 h
[58] = system: K562; assay: Growth inhibition of human K562 cells after 48 hrs by sulforhodamine B assay; settings: K562, 48 h
[59] = system: HL-60(TB); assay: Growth inhibition of human HL-60(TB) cells after 48 hrs by sulforhodamine B assay; settings: HL-60, 48 h
[60] = system: CCRF-CEM; assay: Growth inhibition of human CCRF-CEM cells after 48 hrs by sulforhodamine B assay
[61] = system: Paracentrotus lividus; assay: Microtubule destabilizing activity in sea urchin free-swimming blastula assessed as embryo spinning treated at 9 to 10 hrs post-fertilization measured after 0.15 to 15 hrs
[62] = system: Paracentrotus lividus; assay: Antimitotic activity in sea urchin fertilized egg assessed as cleavage arrest treated at 8 to 20 mins post-fertilization measured at 2.5 to 5.5 hrs post-fertilization
[63] = system: Paracentrotus lividus; assay: Antimitotic activity in sea urchin fertilized egg assessed as cleavage alteration treated at 8 to 20 mins post-fertilization measured at 2.5 to 5.5 hrs post-fertilization

Which GI50 [1] does the source give for `COc1ccc(-c2onc(N)c2-c2cc(OC)c3c(c2)OCO3)cc1` here?
The GI50 was 0.538 µM.

And the GI50 [2]?
Its GI50 is 4.41 µM.

And the GI50 [3]?
The GI50 was 2.94 µM.

And the GI50 [4]?
The GI50 was 2.43 µM.

What about the GI50 [5] of the same molecule?
Its GI50 is 0.962 µM.

What about the GI50 [6] of the same molecule?
The GI50 was 3.75 µM.

And the GI50 [7]?
Its GI50 is 3.99 µM.

What about the GI50 [8] of the same molecule?
The GI50 was 4.28 µM.

What about the GI50 [9] of the same molecule?
The GI50 was 14.3 µM.

What about the GI50 [10] of the same molecule?
The GI50 was 5.13 µM.

And the GI50 [11]?
Its GI50 is 12.3 µM.

And the GI50 [12]?
The GI50 was 3.69 µM.

And the GI50 [13]?
Its GI50 is 2.94 µM.

And the GI50 [14]?
The GI50 was 1.81 µM.

What about the GI50 [15] of the same molecule?
The GI50 was 6.74 µM.

What about the GI50 [16] of the same molecule?
The GI50 was 6.56 µM.

And the GI50 [17]?
Its GI50 is 4.2 µM.

And the GI50 [18]?
Its GI50 is 4.26 µM.

What about the GI50 [19] of the same molecule?
Its GI50 is 0.684 µM.

And the GI50 [20]?
The GI50 was 16.1 µM.

And the GI50 [21]?
The GI50 was 8.8 µM.

What about the GI50 [22] of the same molecule?
Its GI50 is 10.6 µM.

And the GI50 [23]?
Its GI50 is 2.39 µM.

What about the GI50 [24] of the same molecule?
The GI50 was 3.16 µM.

What about the GI50 [25] of the same molecule?
Its GI50 is 2.45 µM.

And the GI50 [26]?
Its GI50 is 5.62 µM.

And the GI50 [27]?
The GI50 was 2.45 µM.

What about the GI50 [28] of the same molecule?
The GI50 was 0.29 µM.

And the GI50 [29]?
The GI50 was 1.32 µM.

What about the GI50 [30] of the same molecule?
The GI50 was 1.4 µM.

And the GI50 [31]?
Its GI50 is 8.51 µM.

And the GI50 [32]?
The GI50 was 3.26 µM.

What about the GI50 [33] of the same molecule?
The GI50 was 2.31 µM.

And the GI50 [34]?
The GI50 was 1.75 µM.

What about the GI50 [35] of the same molecule?
Its GI50 is 3.25 µM.

And the GI50 [36]?
Its GI50 is 6.74 µM.

And the GI50 [37]?
Its GI50 is 2.32 µM.

And the GI50 [38]?
The GI50 was 13.3 µM.

And the GI50 [39]?
The GI50 was 0.495 µM.

What about the GI50 [40] of the same molecule?
Its GI50 is 2.23 µM.

And the GI50 [41]?
The GI50 was 1.49 µM.

And the GI50 [42]?
The GI50 was 1.14 µM.

What about the GI50 [43] of the same molecule?
The GI50 was 2.01 µM.

And the GI50 [44]?
Its GI50 is 2.77 µM.

And the GI50 [45]?
Its GI50 is 2.44 µM.

And the GI50 [46]?
Its GI50 is 0.796 µM.

And the GI50 [47]?
The GI50 was 3.04 µM.

And the GI50 [48]?
Its GI50 is 5.98 µM.

And the GI50 [49]?
The GI50 was 3.08 µM.

What about the GI50 [50] of the same molecule?
Its GI50 is 28 µM.

What about the GI50 [51] of the same molecule?
The GI50 was 4.59 µM.

And the GI50 [52]?
The GI50 was 6.35 µM.

What about the GI50 [53] of the same molecule?
The GI50 was 2.74 µM.

And the GI50 [54]?
Its GI50 is 6.58 µM.

What about the GI50 [55] of the same molecule?
The GI50 was 4.07 µM.

What about the GI50 [56] of the same molecule?
Its GI50 is 0.449 µM.

And the GI50 [57]?
The GI50 was 3.28 µM.

What about the GI50 [58] of the same molecule?
Its GI50 is 0.519 µM.

What about the GI50 [59] of the same molecule?
The GI50 was 1.3 µM.

What about the GI50 [60] of the same molecule?
The GI50 was 2.47 µM.

What about the EC [61] of the same molecule?
The EC was over 10 µM.

What about the EC [62] of the same molecule?
The EC was over 4 µM.

What about the EC [63] of the same molecule?
The EC was 0.2 µM.
